Test results taken from PubChem BioAssay AID1259407 (Chemical Carcinogenesis Research Information System (CCRIS), 2018).
Activity calls are given as the source filed them. How the calls were made is not given here.

Test system: CCRIS mutagenicity, Ames/micronucleus/aberration tests
Experiment: CCRIS mutagenicity studies
[1] = Test System: AMES SALMONELLA TYPHIMURIUM, Strain/Indicator: TA97, Metabolic Activation: HAMSTER, LIVER, S-9, AROCLOR 1254 (10%), Method: PREINCUBATION
[2] = Test System: AMES SALMONELLA TYPHIMURIUM, Strain/Indicator: TA97, Metabolic Activation: HAMSTER, LIVER, S-9, AROCLOR 1254 (30%), Method: PREINCUBATION
[3] = Test System: AMES SALMONELLA TYPHIMURIUM, Strain/Indicator: TA97, Metabolic Activation: NONE, Method: PREINCUBATION
[4] = Test System: AMES SALMONELLA TYPHIMURIUM, Strain/Indicator: TA97, Metabolic Activation: RAT, LIVER, S-9, AROCLOR 1254 (10%), Method: PREINCUBATION
[5] = Test System: AMES SALMONELLA TYPHIMURIUM, Strain/Indicator: TA97, Metabolic Activation: RAT, LIVER, S-9, AROCLOR 1254 (30%), Method: PREINCUBATION
[6] = Test System: AMES SALMONELLA TYPHIMURIUM, Strain/Indicator: TA98, Metabolic Activation: HAMSTER, LIVER, S-9, AROCLOR 1254 (10%), Method: PREINCUBATION
[7] = Test System: AMES SALMONELLA TYPHIMURIUM, Strain/Indicator: TA98, Metabolic Activation: HAMSTER, LIVER, S-9, AROCLOR 1254 (30%), Method: PREINCUBATION
[8] = Test System: AMES SALMONELLA TYPHIMURIUM, Strain/Indicator: TA98, Metabolic Activation: NONE, Method: PREINCUBATION
[9] = Test System: AMES SALMONELLA TYPHIMURIUM, Strain/Indicator: TA98, Metabolic Activation: RAT, LIVER, S-9, AROCLOR 1254 (10%), Method: PREINCUBATION
[10] = Test System: AMES SALMONELLA TYPHIMURIUM, Strain/Indicator: TA98, Metabolic Activation: RAT, LIVER, S-9, AROCLOR 1254 (30%), Method: PREINCUBATION
[11] = Test System: AMES SALMONELLA TYPHIMURIUM, Strain/Indicator: TA100, Metabolic Activation: HAMSTER, LIVER, S-9, AROCLOR 1254 (10%), Method: PREINCUBATION
[12] = Test System: AMES SALMONELLA TYPHIMURIUM, Strain/Indicator: TA100, Metabolic Activation: HAMSTER, LIVER, S-9, AROCLOR 1254 (30%), Method: PREINCUBATION
[13] = Test System: AMES SALMONELLA TYPHIMURIUM, Strain/Indicator: TA100, Metabolic Activation: NONE, Method: PREINCUBATION
[14] = Test System: AMES SALMONELLA TYPHIMURIUM, Strain/Indicator: TA100, Metabolic Activation: RAT, LIVER, S-9, AROCLOR 1254 (30%), Method: PREINCUBATION
[15] = Test System: AMES SALMONELLA TYPHIMURIUM, Strain/Indicator: TA1535, Metabolic Activation: HAMSTER, LIVER, S-9, AROCLOR 1254 (10%), Method: PREINCUBATION
[16] = Test System: AMES SALMONELLA TYPHIMURIUM, Strain/Indicator: TA1535, Metabolic Activation: HAMSTER, LIVER, S-9, AROCLOR 1254 (30%), Method: PREINCUBATION
[17] = Test System: AMES SALMONELLA TYPHIMURIUM, Strain/Indicator: TA1535, Metabolic Activation: NONE, Method: PREINCUBATION
[18] = Test System: AMES SALMONELLA TYPHIMURIUM, Strain/Indicator: TA1535, Metabolic Activation: RAT, LIVER, S-9, AROCLOR 1254 (10%), Method: PREINCUBATION
[19] = Test System: AMES SALMONELLA TYPHIMURIUM, Strain/Indicator: TA1535, Metabolic Activation: RAT, LIVER, S-9, AROCLOR 1254 (30%), Method: PREINCUBATION
[20] = Test System: AMES SALMONELLA TYPHIMURIUM, Strain/Indicator: TA100, Metabolic Activation: NONE, Method: STANDARD PLATE

SMILES | mutagenic call [1] | mutagenic call [2] | mutagenic call [3] | mutagenic call [4] | mutagenic call [5] | mutagenic call [6] | mutagenic call [7] | mutagenic call [8] | mutagenic call [9] | mutagenic call [10] | mutagenic call [11] | mutagenic call [12] | mutagenic call [13] | mutagenic call [14] | mutagenic call [15] | mutagenic call [16] | mutagenic call [17] | mutagenic call [18] | mutagenic call [19] | mutagenic call [20] | further results
COc1ccc(C(=O)c2ccccc2)c(O)c1 | inactive; negative | inactive; negative | inactive; negative | inactive; negative | inactive; negative | inactive; negative | inactive; negative | inactive; negative | inactive; negative | inactive; negative | inactive; negative | inactive; negative | inactive; negative | inactive; negative | inactive; negative | inactive; negative | inactive; negative | inactive; negative | inactive; negative | – | mutagenic call (Test System: AMES SALMONELLA TYPHIMURIUM, Strain/Indicator: TA100, Metabolic Activation: RAT, LIVER, S-9, AROCLOR 1254 (10%), Method: PREINCUBATION): inactive; negative; mutagenic call (Test System: AMES SALMONELLA TYPHIMURIUM, Strain/Indicator: TA1537, Metabolic Activation: HAMSTER, LIVER, S-9, AROCLOR 1254 (10%), Method: PREINCUBATION): inactive; negative; mutagenic call (Test System: AMES SALMONELLA TYPHIMURIUM, Strain/Indicator: TA1537, Metabolic Activation: NONE, Method: PREINCUBATION): inactive; negative; mutagenic call (Test System: AMES SALMONELLA TYPHIMURIUM, Strain/Indicator: TA1537, Metabolic Activation: RAT, LIVER, S-9, AROCLOR 1254 (10%), Method: PREINCUBATION): inactive; negative; mutagenic call (Test System: MOUSE LYMPHOMA, Strain/Indicator: L5178Y (TK+/TK-), Metabolic Activation: NONE, Method: SUSPENSION/PLATE): inactive; positive. reevaluation of results: negative; mutagenic call (Test System: MOUSE LYMPHOMA, Strain/Indicator: L5178Y (TK+/TK-), Metabolic Activation: RAT, LIVER, S-9, AROCLOR 1254, Method: SUSPENSION/PLATE): active; positive. reevaluation of results: equivocal
O=C1c2ccccc2C(=O)C1c1ccc2ccccc2n1 | inactive; negative | inactive; negative | inactive; negative | inactive; negative | inactive; negative | inactive; negative | inactive; negative | inactive; negative | inactive; negative | active; positive | inactive; negative | active; positive | inactive; negative | active; positive | inactive; negative | inactive; negative | inactive; negative | inactive; negative | inactive; negative | – | mutagenic call (Test System: AMES SALMONELLA TYPHIMURIUM, Strain/Indicator: TA98, Metabolic Activation: HAMSTER, LIVER, S-9, AROCLOR 1254 (5%), Method: PREINCUBATION): inactive; negative; mutagenic call (Test System: AMES SALMONELLA TYPHIMURIUM, Strain/Indicator: TA98, Metabolic Activation: RAT, LIVER, S-9, AROCLOR 1254 (5%), Method: PREINCUBATION): inactive; negative; mutagenic call (Test System: AMES SALMONELLA TYPHIMURIUM, Strain/Indicator: TA100, Metabolic Activation: RAT, LIVER, S-9, AROCLOR 1254 (5 OR 10%), Method: PREINCUBATION): inactive; negative; mutagenic call (Test System: AMES SALMONELLA TYPHIMURIUM, Strain/Indicator: TA1537 R+, Metabolic Activation: NONE, Method: STANDARD PLATE): active; positive; mutagenic call (Test System: AMES SALMONELLA TYPHIMURIUM, Strain/Indicator: TA1537 R+, Metabolic Activation: RAT, LIVER, S-9, AROCLOR 1254, Method: STANDARD PLATE): active; positive; mutagenic call (Test System: AMES SALMONELLA TYPHIMURIUM, Strain/Indicator: TA1538, Metabolic Activation: HAMSTER, LIVER, S-9, AROCLOR 1254 (30%), Method: PREINCUBATION): active; positive; mutagenic call (Test System: AMES SALMONELLA TYPHIMURIUM, Strain/Indicator: TA1538, Metabolic Activation: RAT, LIVER, S-9, AROCLOR 1254 (30%), Method: PREINCUBATION): active; positive
c1cnc2c(c1)[C@@H]1O[C@H]1C1OC21 (stereo partly specified) | – | – | – | – | – | – | – | – | – | – | – | – | – | – | – | – | – | – | – | inactive; negative | mutagenic call (Test System: AMES SALMONELLA TYPHIMURIUM, Strain/Indicator: TA100, Metabolic Activation: RAT, LIVER, S-9, AROCLOR 1254 (10% OR 20%), Method: STANDARD PLATE): inactive; negative
N[C@@H](CCC(=O)N[C@@H](CS/C(Cl)=C(\Cl)C(Cl)=C(Cl)Cl)C(=O)NCC(=O)O)C(=O)O | – | – | – | – | – | – | – | – | – | – | – | – | active; positive | – | – | – | – | – | – | inactive; negative | mutagenic call (Test System: AMES SALMONELLA TYPHIMURIUM, Strain/Indicator: TA100, Metabolic Activation: RAT, KIDNEY, CYTOSOL, Method: PREINCUBATION): active; positive; mutagenic call (Test System: AMES SALMONELLA TYPHIMURIUM, Strain/Indicator: TA100, Metabolic Activation: RAT, KIDNEY, MICROSOMES, Method: PREINCUBATION): active; positive; mutagenic call (Test System: AMES SALMONELLA TYPHIMURIUM, Strain/Indicator: TA100, Metabolic Activation: RAT, KIDNEY, MITOCHONDRIA, Method: PREINCUBATION): active; positive; mutagenic call (Test System: AMES SALMONELLA TYPHIMURIUM, Strain/Indicator: TA100, Metabolic Activation: RAT, KIDNEY, S-9, AROCLOR 1254, Method: STANDARD PLATE): active; positive
O=[N+]([O-])c1cc(-c2cccc([N+](=O)[O-])c2O)ccc1O | – | – | – | – | – | – | – | inactive; negative | – | – | – | – | – | – | – | – | – | – | – | – | –
CC1(C)[C@H](C(=O)O[C@H](C#N)c2cccc(Oc3ccccc3)c2)[C@@H]1C=C(Cl)Cl | – | – | – | – | – | – | – | – | – | – | – | – | – | – | – | – | – | – | – | – | mutagenic call (End Point: In vitro micronucleus, Test System: Human peripheral blood lymphocytes): active; positive. commercial product containing 10% alpha-cypermethrin in xylene emulsi
